# Values of other authors, collected in patent publication US20220168301A1, “METHODS FOR TREATING SYMPTOMATIC ORTHOSTATIC HYPOTENSION” (Cerecor Inc, priority 2019, published 2022).
# System: patients with nOH
# Conditions: Phase III clinical trials; cited from earlier work
compound,measurement,value
"N[C@H](C(=O)O)[C@H](O)c1ccc(O)c(O)c1 [droxidopa, L-threo-3,4-dihydroxyphenyl-serine]",Standing systolic blood pressure,increase in standing systolic blood pressure
same,"Symptoms of nOH (dizziness, lightheadedness or feeling about to faint)",significant improvement in symptoms of nOH
